# Measured values: PubChem BioAssay (NCI)
#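 GI50 marks 50% less growth. TGI: total growth inhibition.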
# Key:
# Assay in all cases: inhibition of tumour cell growth, NCI panel, 384-well format
# [1] = tested on: 786-0 renal
# [2] = tested on: A498 renal
# [3] = tested on: A549 NSCLC
# [4] = tested on: ACHN renal
# [5] = tested on: BT-549 breast
# [6] = tested on: CAKI-1 renal
# [7] = tested on: CCRF-CEM leukemia
# [8] = tested on: COLO 205 colon
# [9] = tested on: DU-145 prostate
# [10] = tested on: EKVX NSCLC
# [11] = tested on: HCC-2998 colon
# [12] = tested on: HCT-15 colon
# [13] = tested on: HL-60(TB) leukemia
# [14] = tested on: HOP-62 NSCLC
# [15] = tested on: HOP-92 NSCLC
# [16] = tested on: HS 578T breast
# [17] = tested on: HT29 colon
# [18] = tested on: IGROV1 ovarian
# [19] = tested on: K-562 leukemia
# [20] = tested on: KM12 colon
# [21] = tested on: LOX IMVI melanoma
# [22] = tested on: M14 melanoma
# [23] = tested on: MALME-3M melanoma
# [24] = tested on: MCF7 breast
# [25] = tested on: MDA-MB-231 breast
# [26] = tested on: MDA-MB-435 melanoma
# [27] = tested on: MDA-MB-468 breast
# [28] = tested on: MOLT-4 leukemia
# [29] = tested on: NCI-H226 lung
# [30] = tested on: NCI-H23 lung
# [31] = tested on: NCI-H322M lung
# [32] = tested on: NCI-H460 NSCLC
# [33] = tested on: NCI-H522 lung
# [34] = tested on: NCI/ADR-RES ovarian
# [35] = tested on: OVCAR-3 ovarian
# [36] = tested on: OVCAR-4 ovarian
# [37] = tested on: OVCAR-5 ovarian
# [38] = tested on: OVCAR-8 ovarian
# [39] = tested on: PC-3 prostate
# [40] = tested on: RPMI-8226 leukemia
# [41] = tested on: RXF 393 renal
# [42] = tested on: SF-268 CNS
# [43] = tested on: SF-295 CNS
# [44] = tested on: SF-539 CNS
# [45] = tested on: SK-MEL-28 melanoma
# [46] = tested on: SK-MEL-5 melanoma
# [47] = tested on: SK-OV-3 ovarian
# [48] = tested on: SN12C renal
# [49] = tested on: SNB-19 CNS
# [50] = tested on: SNB-75 CNS
# [51] = tested on: SR leukemia
# [52] = tested on: SW-620 colon
# [53] = tested on: T-47D breast
# [54] = tested on: TK-10 renal
# [55] = tested on: UACC-257 melanoma
# [56] = tested on: UACC-62 melanoma
# [57] = tested on: UO-31 renal
smiles,measurement,setting,value
Cn1c(=O)c2c(ncn2CC(=O)Nc2ccc(-c3ccccc3)nn2)n(C)c1=O,GI50,[1],> 100 µM
same,TGI,[1],> 100 µM
same,GI50,[2],> 100 µM
same,TGI,[2],> 100 µM
same,GI50,[3],> 100 µM
same,TGI,[3],> 100 µM
same,GI50,[4],> 100 µM
same,TGI,[4],> 100 µM
same,GI50,[5],> 100 µM
same,TGI,[5],> 100 µM
same,GI50,[6],> 100 µM
same,TGI,[6],> 100 µM
same,GI50,[7],60.2 µM
same,TGI,[7],> 100 µM
same,GI50,[8],> 100 µM
same,TGI,[8],> 100 µM
same,GI50,[9],> 100 µM
same,TGI,[9],> 100 µM
same,GI50,[10],> 100 µM
same,TGI,[10],> 100 µM
same,GI50,[11],> 100 µM
same,TGI,[11],> 100 µM
same,GI50,[12],> 100 µM
same,TGI,[12],> 100 µM
same,GI50,[13],6.01 µM
same,TGI,[13],> 100 µM
same,GI50,[14],> 100 µM
same,TGI,[14],> 100 µM
same,GI50,[15],> 100 µM
same,TGI,[15],> 100 µM
same,GI50,[16],72.9 µM
same,TGI,[16],> 100 µM
same,GI50,[17],> 100 µM
same,TGI,[17],> 100 µM
same,GI50,[18],> 100 µM
same,TGI,[18],> 100 µM
same,GI50,[19],> 100 µM
same,TGI,[19],> 100 µM
same,GI50,[20],> 100 µM
same,TGI,[20],> 100 µM
same,GI50,[21],> 100 µM
same,TGI,[21],> 100 µM
same,GI50,[22],> 100 µM
same,TGI,[22],> 100 µM
same,GI50,[23],> 100 µM
same,TGI,[23],> 100 µM
same,GI50,[24],> 100 µM
same,TGI,[24],> 100 µM
same,GI50,[25],70.8 µM
same,TGI,[25],> 100 µM
same,GI50,[26],> 100 µM
same,TGI,[26],> 100 µM
same,GI50,[27],15.9 µM
same,TGI,[27],96.4 µM
same,GI50,[28],> 100 µM
same,TGI,[28],> 100 µM
same,GI50,[29],> 100 µM
same,TGI,[29],> 100 µM
same,GI50,[30],> 100 µM
same,TGI,[30],> 100 µM
same,GI50,[31],> 100 µM
same,TGI,[31],> 100 µM
same,GI50,[32],> 100 µM
same,TGI,[32],> 100 µM
same,GI50,[33],> 100 µM
same,TGI,[33],> 100 µM
same,GI50,[34],> 100 µM
same,TGI,[34],> 100 µM
same,GI50,[35],> 100 µM
same,TGI,[35],> 100 µM
same,GI50,[36],25.8 µM
same,TGI,[36],> 100 µM
same,GI50,[37],> 100 µM
same,TGI,[37],> 100 µM
same,GI50,[38],> 100 µM
same,TGI,[38],> 100 µM
same,GI50,[39],> 100 µM
same,TGI,[39],> 100 µM
same,GI50,[40],> 100 µM
same,TGI,[40],> 100 µM
same,GI50,[41],27.1 µM
same,TGI,[41],> 100 µM
same,GI50,[42],> 100 µM
same,TGI,[42],> 100 µM
same,GI50,[43],> 100 µM
same,TGI,[43],> 100 µM
same,GI50,[44],> 100 µM
same,TGI,[44],> 100 µM
same,GI50,[45],> 100 µM
same,TGI,[45],> 100 µM
same,GI50,[46],3.44 µM
same,TGI,[46],> 100 µM
same,GI50,[47],> 100 µM
same,TGI,[47],> 100 µM
same,GI50,[48],> 100 µM
same,TGI,[48],> 100 µM
same,GI50,[49],> 100 µM
same,TGI,[49],> 100 µM
same,GI50,[50],> 100 µM
same,TGI,[50],> 100 µM
same,GI50,[51],21.6 µM
same,TGI,[51],> 100 µM
same,GI50,[52],> 100 µM
same,TGI,[52],> 100 µM
same,GI50,[53],36.3 µM
same,TGI,[53],> 100 µM
same,GI50,[54],> 100 µM
same,TGI,[54],> 100 µM
same,GI50,[55],49.8 µM
same,TGI,[55],> 100 µM
same,GI50,[56],74.6 µM
same,TGI,[56],> 100 µM
same,GI50,[57],> 100 µM
same,TGI,[57],> 100 µM
